Reference: patent US20250257034A1, “INDOLE DERIVATIVES AS SEROTONERGIC AGENTS USEFUL FOR THE TREATMENT OF DISORDERS RELATED THERETO” (priority 2023, published 2025)
Where “and” joins values, the source holds several entries; their conditions need not be identical. Identical values can stand only once. Like-named read-outs stand apart in the source and are kept apart here.

How the values were obtained:
[1] = target: human 5-HT2A receptor (Homo sapiens, UniProt P28223); test: Human 5-HT2A radioligand binding assay ([3H]-ketanserin); design: expressed in transfected cells; host or cells: HTR2A&Gα15-HEK293 (tetracycline induction)
Procedure: The objective of this study was to evaluate the binding properties of exemplary compounds of Formula (I) on 5-hydroxytryptamine receptor 2A (5-HT2A).
1. The assay buffer was prepared following Table 13 below.
Adjust pH to 7.4 followed by […] sterile filtration
2. 8 doses of reference and test compounds starting from 10 mM stock solution as required was prepared by 5-fold serial dilutions with 100% (v/v) DMSO.
3. UniFilter-96 GF/B plate was pretreated: • i. 50 μl/well of 0.5% (v/v) PEI was added to UniFilter-96 […] plates. The plates were sealed and incubated at 4° C. for 3 hrs. • ii. After incubation, the plates were washed 3 times with ice-cold wash buffer (50 mM Tris, pH7.4).
4. The assay plate was prepared: • i. Cell membrane was diluted with assay buffer and 330 μl/well was added to 96 round deep well plates to reach a concentration of 20 μg/well. • ii. 8 concentrations of reference or test compounds were prepared and 110 μl/well was added to 96 round deep well plates. • iii. [3H]-ketanserin was diluted with assay buffer to 5 nM (5×final concentration) and 110 μl/well was added to 96 round deep well plates.
5. The plate was centrifuged at 1000 rpm for 30 secs and then agitated at 600 rpm, R.T. for 5 min. […]
7. The incubation was stopped by vacuum filtration onto GF/B filter plates followed by 4 times washing with ice-cold wash buffer (50 mM Tris, pH7.4).
9. The filter plates were sealed and 40 μl/well of scintillation cocktail was added.
10. The plate was read by using a Microbeta^2 microplate counter.
1. For reference and test compounds, the results were expressed as % Inhibition, using the normalization equation: N=100−100×(U-C2)/(C1-C2), where U is the unknown value, C1 is the average of high controls, and C2 is the average of low controls.
2. The IC50 was determined by fitting percentage of inhibition as a function of compound concentrations with Hill equation using XLfit. […]

[2] = Pharmacokinetic studies in rat (i.v.); format: in vivo; conditions: for concentration at 0.25 h / concentration at 1 h / concentration at 4 h / AUC(0-t) / half-life: male, Sprague-Dawley, rat, plasma
Procedure: Animals: Male Sprague-Dawley rats (˜225-350 g) from Charles River Labs were acclimatized for a minimum of 5 days prior to start of study procedures. Body weights were recorded on the day of dosing.
Any abnormalities were documented including presence/absence of wet dog shakes/back muscle contractions (WDS/BMC).
Dosing: Formulations were administered intravenously (i.v.) via the tail vein using a 25 G needle connected to a 1 cc syringe.
The Compounds of Formula (I) were freshly prepared at the appropriate concentrations in 5% Tween-80 in saline.
Blood collection time (h): 0.25, 1 and 4.
Volume/time-point: ˜0.25 mL […] (saphenous vein).
Instrumentation: AB Sciex QTRAP 4000 or 6500 MS/MS system equipped with an LC system with a binary pump, a solvent degasser, a thermostatted column compartment and a multiplate autosampler.
Analysis software: Phoenix® WinNonlin® 8.3 (Pharsight, Certara, Mountainview, CA).
Analysis methods: non-compartmental analysis, linear up/log down trapezoidal rule.
PK parameters: t1/2 and AUC0-tlast were be estimated.
Volume/time-point: ˜0.25 mL (saphenous vein).
PK parameters: t1/2 and AUC0-tlast were estimated.

[3] = [3H]-ketanserin displacement (Table 43), read-out: h5-HT2A, IC50

human 5-HT2A receptor, sequence (P28223 whole entry): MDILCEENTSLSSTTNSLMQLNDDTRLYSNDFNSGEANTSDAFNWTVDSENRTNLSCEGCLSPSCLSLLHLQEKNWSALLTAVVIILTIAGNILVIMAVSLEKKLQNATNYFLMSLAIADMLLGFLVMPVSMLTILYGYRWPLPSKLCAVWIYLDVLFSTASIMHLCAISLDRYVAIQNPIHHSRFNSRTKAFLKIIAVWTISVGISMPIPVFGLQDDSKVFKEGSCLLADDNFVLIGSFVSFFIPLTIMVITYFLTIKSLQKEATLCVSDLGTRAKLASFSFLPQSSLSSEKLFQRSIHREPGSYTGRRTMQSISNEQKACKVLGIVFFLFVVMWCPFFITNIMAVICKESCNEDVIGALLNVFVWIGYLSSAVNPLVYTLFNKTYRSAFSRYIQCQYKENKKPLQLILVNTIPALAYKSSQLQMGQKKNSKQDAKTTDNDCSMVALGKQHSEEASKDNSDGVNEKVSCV

## CCN(CC)CCc1c[nH]c2ccc(SC)cc12 [Compound I-12, N,N-Diethyl-2-(5-(methylthio)-1H-indol-3-yl)ethan-1-amine]
[1]
  IC50: 780 nM
[2]; I-12 1.2 mg/kg i.v., rat plasma, 0.25 h, individual rats R01-R03, 1.2 mg/kg
  Plasma concentration: 53.6 ng/mL and 72.4 ng/mL and 30.1 ng/mL
[2]; I-12 1.2 mg/kg i.v., rat plasma, 1 h, individual rats R01-R03, 1.2 mg/kg
  Plasma concentration: 36.4 ng/mL and 29.7 ng/mL
[2]; I-12 1.2 mg/kg i.v., rat plasma, 4 h, individual rats R01-R03, 1.2 mg/kg
  Plasma concentration: 3.88 ng/mL and 2.55 ng/mL and 6.48 ng/mL
[2]; I-12 1.2 mg/kg i.v., rat plasma, individual rats R01-R03, 1.2 mg/kg
  AUC0-tlast: 97.8 ng·h/mL and 75.7 ng·h/mL
[2]; I-12 1.2 mg/kg i.v., rat plasma, individual rats R01-R03, estimated from 2 points only, 1.2 mg/kg
  Apparent t1/2: 46.7 min
[2]; iv, 1.2 mg/kg, I-12 1.2 mg/kg i.v., rat plasma, 0.25 h, Mean ± SD, read-out: Plasma concentration
  concentration at 0.25 h: 52 ± 21.2 ng/mL
[2]; iv, 1.2 mg/kg, I-12 1.2 mg/kg i.v., rat plasma, 1 h, Mean ± SD, read-out: Plasma concentration
  concentration at 1 h: 31.2 ± 4.6 ng/mL
[2]; iv, 1.2 mg/kg, I-12 1.2 mg/kg i.v., rat plasma, 1 h, individual rats R01-R03, read-out: Plasma concentration
  concentration at 1 h: 27.6 ng/mL
[2]; iv, 1.2 mg/kg, I-12 1.2 mg/kg i.v., rat plasma, 4 h, Mean ± SD, read-out: Plasma concentration
  concentration at 4 h: 4.3 ± 2 ng/mL
[2]; iv, 1.2 mg/kg, I-12 1.2 mg/kg i.v., rat plasma, Mean ± SD, read-out: AUC0-tlast
  AUC(0-t): 84.7 ± 11.6 ng·h/mL
[2]; iv, 1.2 mg/kg, I-12 1.2 mg/kg i.v., rat plasma, individual rats R01-R03, estimated from 2 points only, read-out: Apparent t1/2 (converted)
  half-life: 60.6 min
[2]; iv, 1.2 mg/kg, I-12 1.2 mg/kg i.v., rat plasma, individual rats R01-R03, read-out: AUC0-tlast
  AUC(0-t): 80.6 ng·h/mL
[2]; iv, 1.2 mg/kg, I-12 1.2 mg/kg i.v., rat plasma, mean (n = 2), estimated from 2 points only, read-out: Apparent t1/2 (converted)
  half-life: 53.6 min

## COc1ccc2[nH]cc(CCN3CC[C@@H](OC(F)F)C3)c2c1 [(R) I-67, (R)-3-(2-(3-(Difluoromethoxy)pyrrolidin-1-yl)ethyl)-5-methoxy-1H-indole]
[1]
  IC50: 4080 nM

## COc1ccc2[nH]cc(CCN(C)CCOC(F)F)c2c1 [Compound I-71, 2-(Difluoromethoxy)-N-(2-(5-methoxy-1H-indol-3-yl)ethyl)-N-methylethan-1-amine]
[1]; [3]
  IC50: 2300 nM
[2]; intravenous, rat i.v., 0.25 h, first individual rat (R01/R04), dose 1.37 mg/kg (I-71, I-128), 1.33 mg/kg ((S) I-67), read-out: Plasma concentration
  concentration at 0.25 h: 292 ng/mL
[2]; intravenous, rat i.v., 0.25 h, mean of 3 rats, dose 1.37 mg/kg (I-71, I-128), 1.33 mg/kg ((S) I-67), read-out: Plasma concentration, Mean ± SD
  concentration at 0.25 h: 286 ± 6.03 ng/mL
[2]; intravenous, rat i.v., 0.25 h, second individual rat (R02/R05), dose 1.37 mg/kg (I-71, I-128), 1.33 mg/kg ((S) I-67), read-out: Plasma concentration
  concentration at 0.25 h: 280 ng/mL
[2]; intravenous, rat i.v., 0.25 h, third individual rat (R03/R06), dose 1.37 mg/kg (I-71, I-128), 1.33 mg/kg ((S) I-67), read-out: Plasma concentration
  concentration at 0.25 h: 287 ng/mL
[2]; intravenous, rat i.v., 1 h, first individual rat (R01/R04), dose 1.37 mg/kg (I-71, I-128), 1.33 mg/kg ((S) I-67), read-out: Plasma concentration
  concentration at 1 h: 61.5 ng/mL
[2]; intravenous, rat i.v., 1 h, mean of 3 rats, dose 1.37 mg/kg (I-71, I-128), 1.33 mg/kg ((S) I-67), read-out: Plasma concentration, Mean ± SD
  concentration at 1 h: 82.5 ± 19.1 ng/mL
[2]; intravenous, rat i.v., 1 h, second individual rat (R02/R05), dose 1.37 mg/kg (I-71, I-128), 1.33 mg/kg ((S) I-67), read-out: Plasma concentration
  concentration at 1 h: 87.2 ng/mL
[2]; intravenous, rat i.v., 1 h, third individual rat (R03/R06), dose 1.37 mg/kg (I-71, I-128), 1.33 mg/kg ((S) I-67), read-out: Plasma concentration
  concentration at 1 h: 98.9 ng/mL
[2]; intravenous, rat i.v., 4 h, first individual rat (R01/R04), dose 1.37 mg/kg (I-71, I-128), 1.33 mg/kg ((S) I-67), read-out: Plasma concentration
  concentration at 4 h: 1.27 ng/mL
[2]; intravenous, rat i.v., 4 h, mean of 3 rats, dose 1.37 mg/kg (I-71, I-128), 1.33 mg/kg ((S) I-67), read-out: Plasma concentration, Mean ± SD
  concentration at 4 h: 1.82 ± 0.582 ng/mL
[2]; intravenous, rat i.v., 4 h, second individual rat (R02/R05), dose 1.37 mg/kg (I-71, I-128), 1.33 mg/kg ((S) I-67), read-out: Plasma concentration
  concentration at 4 h: 1.77 ng/mL
[2]; intravenous, rat i.v., 4 h, third individual rat (R03/R06), dose 1.37 mg/kg (I-71, I-128), 1.33 mg/kg ((S) I-67), read-out: Plasma concentration
  concentration at 4 h: 2.43 ng/mL
[2]; iv, rat plasma, i.v., first individual rat (R01/R04), dose 1.37 mg/kg (I-71, I-128), 1.33 mg/kg ((S) I-67), read-out: AUC0-tlast
  AUC(0-t): 253 ng·h/mL
[2]; iv, rat plasma, i.v., first individual rat (R01/R04), estimated from 2 points only, dose 1.37 mg/kg (I-71, I-128), 1.33 mg/kg ((S) I-67), read-out: Apparent t1/2 (converted)
  half-life: 29.6 min
[2]; iv, rat plasma, i.v., mean of 3 rats, dose 1.37 mg/kg (I-71, I-128), 1.33 mg/kg ((S) I-67), read-out: AUC0-tlast, Mean ± SD
  AUC(0-t): 275 ± 21.7 ng·h/mL
[2]; iv, rat plasma, i.v., mean of 3 rats, estimated from 2 points only, dose 1.37 mg/kg (I-71, I-128), 1.33 mg/kg ((S) I-67), read-out: Apparent t1/2, Mean ± SD (converted)
  half-life: 31.2 ± 1.69 min
[2]; iv, rat plasma, i.v., second individual rat (R02/R05), dose 1.37 mg/kg (I-71, I-128), 1.33 mg/kg ((S) I-67), read-out: AUC0-tlast
  AUC(0-t): 275 ng·h/mL
[2]; iv, rat plasma, i.v., second individual rat (R02/R05), estimated from 2 points only, dose 1.37 mg/kg (I-71, I-128), 1.33 mg/kg ((S) I-67), read-out: Apparent t1/2 (converted)
  half-life: 31.1 min
[2]; iv, rat plasma, i.v., third individual rat (R03/R06), dose 1.37 mg/kg (I-71, I-128), 1.33 mg/kg ((S) I-67), read-out: AUC0-tlast
  AUC(0-t): 297 ng·h/mL
[2]; iv, rat plasma, i.v., third individual rat (R03/R06), estimated from 2 points only, dose 1.37 mg/kg (I-71, I-128), 1.33 mg/kg ((S) I-67), read-out: Apparent t1/2 (converted)
  half-life: 32.9 min

## CN(C)CCc1c[nH]c2ccccc12 [DMT]
[1]; [3H]-ketanserin displacement (Table 14), read-out: h5-HT2A, IC50
  IC50: 954 nM
[1]; [3]
  IC50: 954 nM

## COc1ccc2[nH]cc(CCN3CC[C@@H](OC)C3)c2c1 [(R) I-66, (R)-5-methoxy-3-(2-(3-methoxypyrrolidin-1-yl)ethyl)-1H-indole]
[1]
  IC50: 4250 nM

## CN(CCOC(F)F)CCc1c[nH]c2ccccc12 [Compound I-130, N-(2-(1H-Indol-3-yl)ethyl)-2-(difluoromethoxy)-N-methylethan-1-amine]
[1]; [3]
  IC50: 5680 nM
